Assay results as given in paper PMC9386018, “A lymphatic-absorbed multi-targeted kinase inhibitor for myelofibrosis therapy” (Nature Communications, 2022).
Where “and” joins values, the source holds several entries; their conditions need not be identical. Identical values can stand only once.

Key:
[1] = Pharmacokinetic analysis of plasma after intravenous and oral dosing; conditions: mice, plasma, analyte = label, individual animals
[2] = target: Target kinase isoforms (PI3K, mTOR, RAF, MEK) (Homo sapiens, UniProt P48736); experiment: Target kinase isoforms 10-point IC50 determination (Supplementary Fig. 7); assay type: biochemical; conditions: PI3K gamma
Source text: (§1) The average percent kinase inhibition from replicate data was ranked low to high, converted to a compatible identifier format, then input into Coral Human Kinome Visualization software for presentation analysis. […] Scaling of evolutionary distance for PI kinases is only relative and is based on literature analysis[62],[63]. Average percent kinome inhibition values from replicate data are supplied in Source Data file. […] Corrected data was normalized to vehicle treated control values, and dose response percent kinase activity was analyzed by non-linear regression for determination of IC50 values.

[3] = target: Target kinase isoforms (PI3K, mTOR, RAF, MEK) (Homo sapiens, UniProt P42338); experiment: as above; assay type: biochemical; conditions: PI3K beta
Source text: as §1

[4] = target: Target kinase isoforms (PI3K, mTOR, RAF, MEK) (Homo sapiens, UniProt P42345); experiment: as above; assay type: biochemical; conditions: mTOR
Source text: as §1

[5] = target: Target kinase isoforms (PI3K, mTOR, RAF, MEK) (Homo sapiens, UniProt P42336); experiment: as above; assay type: biochemical; conditions: PI3K alpha
Source text: as §1

[6] = concentration 0.495 nM, 0.000495 µM
[7] = concentration 1.52 nM, 0.00152 µM
[8] = concentration 4.57 nM, 0.00457 µM
[9] = concentration 41.2 nM, 0.0412 µM

Target kinase isoforms (PI3K, mTOR, RAF, MEK) (Homo sapiens, UniProt P48736), sequence (P48736 whole entry, canonical isoform): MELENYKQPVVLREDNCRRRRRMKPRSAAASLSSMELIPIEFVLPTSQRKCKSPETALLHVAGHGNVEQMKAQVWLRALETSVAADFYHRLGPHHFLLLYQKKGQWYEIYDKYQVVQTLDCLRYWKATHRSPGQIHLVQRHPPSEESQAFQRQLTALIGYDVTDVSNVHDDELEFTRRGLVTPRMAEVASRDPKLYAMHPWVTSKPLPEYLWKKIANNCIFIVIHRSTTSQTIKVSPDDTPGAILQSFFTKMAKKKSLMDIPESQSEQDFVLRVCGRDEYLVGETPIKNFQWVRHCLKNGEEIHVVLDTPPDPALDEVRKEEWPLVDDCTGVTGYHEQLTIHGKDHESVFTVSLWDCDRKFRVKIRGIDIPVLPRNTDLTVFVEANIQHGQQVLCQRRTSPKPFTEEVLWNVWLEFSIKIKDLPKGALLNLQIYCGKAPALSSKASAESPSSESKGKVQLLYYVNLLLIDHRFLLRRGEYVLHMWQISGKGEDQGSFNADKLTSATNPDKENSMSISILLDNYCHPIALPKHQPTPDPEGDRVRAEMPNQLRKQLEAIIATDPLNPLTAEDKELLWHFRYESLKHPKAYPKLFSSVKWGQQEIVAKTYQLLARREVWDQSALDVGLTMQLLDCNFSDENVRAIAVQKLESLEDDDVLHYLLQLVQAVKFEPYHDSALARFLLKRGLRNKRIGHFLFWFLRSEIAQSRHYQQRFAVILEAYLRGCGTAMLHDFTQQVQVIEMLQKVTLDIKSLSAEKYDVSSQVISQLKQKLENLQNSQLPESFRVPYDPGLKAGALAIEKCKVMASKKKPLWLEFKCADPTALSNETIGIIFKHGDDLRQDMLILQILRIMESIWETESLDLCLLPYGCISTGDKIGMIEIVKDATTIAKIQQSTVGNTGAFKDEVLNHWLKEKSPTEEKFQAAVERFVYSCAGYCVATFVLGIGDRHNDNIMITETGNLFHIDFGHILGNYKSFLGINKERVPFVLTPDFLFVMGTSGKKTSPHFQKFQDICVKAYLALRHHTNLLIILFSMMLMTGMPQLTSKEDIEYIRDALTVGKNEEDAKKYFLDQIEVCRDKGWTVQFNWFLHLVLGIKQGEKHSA
Target kinase isoforms (PI3K, mTOR, RAF, MEK) (Homo sapiens, UniProt P42338), sequence (P42338 whole entry, canonical isoform): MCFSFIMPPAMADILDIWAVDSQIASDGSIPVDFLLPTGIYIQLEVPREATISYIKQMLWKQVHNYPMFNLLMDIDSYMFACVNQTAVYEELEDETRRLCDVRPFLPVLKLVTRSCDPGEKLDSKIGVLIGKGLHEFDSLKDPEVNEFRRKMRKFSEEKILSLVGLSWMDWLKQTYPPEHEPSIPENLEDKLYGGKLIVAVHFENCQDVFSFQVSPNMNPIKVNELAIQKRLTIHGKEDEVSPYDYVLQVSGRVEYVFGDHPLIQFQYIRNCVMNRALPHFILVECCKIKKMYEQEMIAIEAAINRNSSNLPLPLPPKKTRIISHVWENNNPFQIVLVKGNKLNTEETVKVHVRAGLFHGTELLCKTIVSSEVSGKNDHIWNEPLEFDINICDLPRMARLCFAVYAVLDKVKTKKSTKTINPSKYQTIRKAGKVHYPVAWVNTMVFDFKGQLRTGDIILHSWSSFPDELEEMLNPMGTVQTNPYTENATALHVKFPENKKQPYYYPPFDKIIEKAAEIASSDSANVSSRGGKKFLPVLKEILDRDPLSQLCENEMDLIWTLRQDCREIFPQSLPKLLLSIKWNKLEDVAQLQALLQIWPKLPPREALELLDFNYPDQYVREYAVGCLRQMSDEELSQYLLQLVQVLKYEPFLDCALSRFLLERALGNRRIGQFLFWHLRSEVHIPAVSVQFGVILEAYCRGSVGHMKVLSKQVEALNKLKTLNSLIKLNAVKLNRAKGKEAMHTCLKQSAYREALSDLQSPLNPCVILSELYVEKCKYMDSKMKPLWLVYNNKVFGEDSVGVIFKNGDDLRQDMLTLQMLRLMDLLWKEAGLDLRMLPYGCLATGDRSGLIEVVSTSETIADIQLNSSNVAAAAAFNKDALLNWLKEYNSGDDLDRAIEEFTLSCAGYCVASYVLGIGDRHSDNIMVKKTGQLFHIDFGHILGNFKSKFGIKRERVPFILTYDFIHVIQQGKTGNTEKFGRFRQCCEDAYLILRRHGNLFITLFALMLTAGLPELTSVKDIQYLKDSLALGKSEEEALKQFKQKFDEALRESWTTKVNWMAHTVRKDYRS
Target kinase isoforms (PI3K, mTOR, RAF, MEK) (Homo sapiens, UniProt P42336), sequence (P42336 whole entry, canonical isoform): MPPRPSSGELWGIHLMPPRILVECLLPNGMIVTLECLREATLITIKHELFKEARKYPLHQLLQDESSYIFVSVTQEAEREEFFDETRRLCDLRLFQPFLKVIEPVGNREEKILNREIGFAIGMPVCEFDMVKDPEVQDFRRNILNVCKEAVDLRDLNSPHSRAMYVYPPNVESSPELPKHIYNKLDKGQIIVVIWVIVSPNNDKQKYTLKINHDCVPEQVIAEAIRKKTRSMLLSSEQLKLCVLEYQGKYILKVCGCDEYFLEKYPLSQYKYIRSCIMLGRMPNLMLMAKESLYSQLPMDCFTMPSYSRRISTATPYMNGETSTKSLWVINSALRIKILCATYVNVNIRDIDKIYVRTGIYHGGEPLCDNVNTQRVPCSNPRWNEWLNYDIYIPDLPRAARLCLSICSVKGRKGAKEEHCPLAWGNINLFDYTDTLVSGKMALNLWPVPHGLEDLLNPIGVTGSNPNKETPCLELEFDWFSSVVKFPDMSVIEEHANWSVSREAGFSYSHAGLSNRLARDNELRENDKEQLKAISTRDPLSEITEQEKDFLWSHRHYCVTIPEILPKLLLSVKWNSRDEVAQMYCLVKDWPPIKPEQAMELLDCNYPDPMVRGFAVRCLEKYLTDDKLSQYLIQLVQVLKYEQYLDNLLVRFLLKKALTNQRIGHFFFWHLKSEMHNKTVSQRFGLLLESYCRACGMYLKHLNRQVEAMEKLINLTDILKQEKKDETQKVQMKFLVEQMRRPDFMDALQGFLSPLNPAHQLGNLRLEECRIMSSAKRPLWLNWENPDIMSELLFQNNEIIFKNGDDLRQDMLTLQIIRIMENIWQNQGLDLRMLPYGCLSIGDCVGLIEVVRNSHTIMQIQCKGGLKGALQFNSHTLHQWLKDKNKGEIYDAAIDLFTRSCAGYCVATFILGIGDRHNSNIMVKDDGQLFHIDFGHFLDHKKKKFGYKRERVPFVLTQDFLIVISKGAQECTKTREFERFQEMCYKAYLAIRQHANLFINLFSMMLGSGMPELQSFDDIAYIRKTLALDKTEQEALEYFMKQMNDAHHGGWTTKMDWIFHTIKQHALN

For O=C(NOCCOCCOCCOCCC(=O)N1CCN(c2cnc3ccc(-c4cnc(Cl)c(NS(=O)(=O)c5ccc(F)cc5)c4)cc3n2)CC1)c1ccc(F)c(F)c1Nc1ccc(I)cc1F [LP-182, N-(2-(2-(2-(3-(4-(7-(6-chloro-5-((4-fluorophenyl)sulfonamido)pyridin-3-yl)quinoxalin-2-yl)piperazin-1-yl)-3-oxopropoxy)ethoxy)ethoxy)ethoxy)-3,4-difluoro-2-((2-fluoro-4-iodophenyl)amino)benzamide], which “Concentration” value ([1]; single i.v. LP-182 15 mg kg^−1, 0.5 h) is on record?
Its value is 807 ng/mL and 646 ng/mL.

And the “Concentration” value ([1]; single i.v. LP-182 15 mg kg^−1, 1 h)?
The value was 451 ng/mL and 857 ng/mL.

What about the “Concentration” value ([1]; single i.v. LP-182 15 mg kg^−1, 2 h) of the same compound?
The value was 275 ng/mL and 179 ng/mL.

And the “Concentration” value ([1]; single i.v. LP-182 15 mg kg^−1, 4 h)?
The value was 141 ng/mL and 75.9 ng/mL.

And the “Concentration” value ([1]; single i.v. LP-182 15 mg kg^−1, 7 h)?
The value was 51.4 ng/mL and 34.3 ng/mL.

What about the “Concentration” value ([1]; single i.v. LP-182 15 mg kg^−1, 16 h) of the same compound?
Its value is 30.6 ng/mL and 29.3 ng/mL and 5.58 ng/mL.

What about the “Concentration” value ([1]; single i.v. LP-182 15 mg kg^−1, 24 h) of the same compound?
The value was 7.68 ng/mL and 8.28 ng/mL.

What about the “Concentration” value ([1]; single p.o. LP-182 400 mg kg^−1, 0.167 h) of the same compound?
The value was 731 ng/mL and 1660 ng/mL and 900 ng/mL.

What about the “Concentration” value ([1]; single p.o. LP-182 400 mg kg^−1, 0.5 h) of the same compound?
Its value is 2150 ng/mL and 2630 ng/mL.

And the “Concentration” value ([1]; single p.o. LP-182 400 mg kg^−1, 1 h)?
Its value is 1580 ng/mL and 1950 ng/mL.

And the “Concentration” value ([1]; single p.o. LP-182 400 mg kg^−1, 2 h)?
Its value is 424 ng/mL and 145 ng/mL and 74.1 ng/mL.

What about the “Concentration” value ([1]; single p.o. LP-182 400 mg kg^−1, 4 h) of the same compound?
Its value is 146 ng/mL and 522 ng/mL and 339 ng/mL.

What about the “Concentration” value ([1]; single p.o. LP-182 400 mg kg^−1, 7 h) of the same compound?
Its value is 331 ng/mL and 97.6 ng/mL and 1560 ng/mL.

And the “Concentration” value ([1]; single p.o. LP-182 400 mg kg^−1, 16 h)?
The value was 79.2 ng/mL and 205 ng/mL and 265 ng/mL.

What about the “Concentration” value ([1]; single p.o. LP-182 400 mg kg^−1, 24 h) of the same compound?
The value was 401 ng/mL and 114 ng/mL and 295 ng/mL.

And the activity at 0.123 µM ([2]; concentration 123 nM)?
Its activity at 0.123 µM is 20%.

And the activity at […] ([2]; concentration 370 nM)?
The activity at […] was 6%.

And the “Kinase Activity (%) PI3K gamma” value ([2]; concentration 1110 nM, 1.11 µM)?
The value was 1% and 3% and 4% and 0%.

What about the “Kinase Activity (%) PI3K gamma” value ([2]; concentration 3330 nM, 3.33 µM) of the same compound?
Its value is 0% and 1%.

What about the “Kinase Activity (%) PI3K gamma” value ([2]; concentration 10000 nM, 10 µM) of the same compound?
The value was 4% and 0% and 2%.

And the “Kinase Activity (%) PI3K beta” value [3, 6]?
The value was 105% and 85% and 110% and 102% and 121% and 113%.

And the “Kinase Activity (%) PI3K beta” value [3, 7]?
Its value is 95% and 99% and 101% and 103% and 119% and 118%.

What about the “Kinase Activity (%) PI3K beta” value [3, 8] of the same compound?
The value was 89% and 94% and 105% and 106% and 117% and 114%.

And the “Kinase Activity (%) PI3K beta” value [3, 9]?
Its value is 80% and 74% and 95% and 101% and 98% and 107%.

What about the “Kinase Activity (%) PI3K beta” value ([3]; concentration 123 nM, 0.123 µM) of the same compound?
The value was 63% and 51% and 71% and 72% and 84%.

What about the activity at 3.33 µM ([3]; concentration 3330 nM) of the same compound?
Its activity at 3.33 µM is 16%.

What about the “Kinase Activity (%) PI3K beta” value ([3]; concentration 3330 nM, 3.33 µM) of the same compound?
Its value is 24% and 12% and 13% and 14%.

And the “Kinase Activity (%) PI3K beta” value ([3]; concentration 10000 nM, 10 µM)?
Its value is 13% and 5% and 3%.

And the activity at 0.000495 µM ([4]; concentration 0.495 nM)?
The activity at 0.000495 µM was 95%.

What about the “Kinase Activity (%) mTOR” value [4, 6] of the same compound?
The value was 99% and 98% and 101% and 94% and 96%.

And the activity at 0.00152 µM ([4]; concentration 1.52 nM)?
Its activity at 0.00152 µM is 97%.

What about the “Kinase Activity (%) mTOR” value [4, 7] of the same compound?
Its value is 99% and 100% and 94%.

And the activity at 0.00457 µM ([4]; concentration 4.57 nM)?
The activity at 0.00457 µM was 91%.

And the “Kinase Activity (%) mTOR” value [4, 8]?
Its value is 92% and 94% and 87% and 88%.

And the activity at 0.0412 µM ([4]; concentration 41.2 nM)?
Its activity at 0.0412 µM is 52%.

What about the “Kinase Activity (%) mTOR” value [4, 9] of the same compound?
The value was 63% and 57% and 47%.

What about the activity at 0.123 µM ([4]; concentration 123 nM) of the same compound?
Its activity at 0.123 µM is 29%.

What about the “Kinase Activity (%) mTOR” value ([4]; concentration 123 nM, 0.123 µM) of the same compound?
The value was 30% and 32% and 31%.

And the activity at […] ([4]; concentration 370 nM)?
The activity at […] was 13%.

And the “Kinase Activity (%) mTOR” value ([4]; concentration 1110 nM, 1.11 µM)?
Its value is 4% and 3% and 5% and 1% and 2%.

And the “Kinase Activity (%) mTOR” value ([4]; concentration 3330 nM, 3.33 µM)?
The value was 0% and -1% and -2%.

What about the “Kinase Activity (%) mTOR” value ([4]; concentration 10000 nM, 10 µM) of the same compound?
Its value is 2% and -1% and 1%.

What about the “Kinase Activity (%) PI3K alpha” value ([5]; concentration 0.0188 nM, 18.8 pM) of the same compound?
The value was 97% and 99% and 100% and 98% and 76% and 90%.

What about the “Kinase Activity (%) PI3K alpha” value ([5]; concentration 0.0564 nM, 56.4 pM) of the same compound?
Its value is 93% and 98% and 99% and 108% and 106% and 80% and 82% and 89%.

What about the “Kinase Activity (%) PI3K alpha” value [5, 6] of the same compound?
Its value is 79%.

And the activity at 0.00457 µM ([5]; concentration 4.57 nM)?
The activity at 0.00457 µM was 27%.

And the “Kinase Activity (%) PI3K alpha” value [5, 9]?
Its value is 4% and 6% and 8% and 9% and 5% and 10% and 7%.

What about the “Kinase Activity (%) PI3K alpha” value ([5]; concentration 123 nM, 0.123 µM) of the same compound?
The value was 1% and 3% and 4% and 2% and 6%.

And the “Kinase Activity (%) PI3K alpha” value ([5]; concentration 1110 nM, 1.11 µM)?
The value was 0% and 1%.

And the “Kinase Activity (%) PI3K alpha” value ([5]; concentration 3330 nM, 3.33 µM)?
Its value is 1% and 0% and 2%.

What about the “Kinase Activity (%) PI3K alpha” value ([5]; concentration 10000 nM, 10 µM) of the same compound?
The value was 5% and 0% and 3% and 1%.
